By IC50 is commonly meant the point on the concentration scale where inhibition reaches its midpoint.

This note sets out measurements from patent US20240189289A1, “INHIBITORS OF EPHB3 SIGNALING” (The Brigham and Women`s Hospital, Inc., priority 2021, published 2024).

Holding throughout (type): biochemical
One experiment addresses T1, EphB3 (Homo sapiens, UniProt P54753).
T1 sequence (P54753 34-998): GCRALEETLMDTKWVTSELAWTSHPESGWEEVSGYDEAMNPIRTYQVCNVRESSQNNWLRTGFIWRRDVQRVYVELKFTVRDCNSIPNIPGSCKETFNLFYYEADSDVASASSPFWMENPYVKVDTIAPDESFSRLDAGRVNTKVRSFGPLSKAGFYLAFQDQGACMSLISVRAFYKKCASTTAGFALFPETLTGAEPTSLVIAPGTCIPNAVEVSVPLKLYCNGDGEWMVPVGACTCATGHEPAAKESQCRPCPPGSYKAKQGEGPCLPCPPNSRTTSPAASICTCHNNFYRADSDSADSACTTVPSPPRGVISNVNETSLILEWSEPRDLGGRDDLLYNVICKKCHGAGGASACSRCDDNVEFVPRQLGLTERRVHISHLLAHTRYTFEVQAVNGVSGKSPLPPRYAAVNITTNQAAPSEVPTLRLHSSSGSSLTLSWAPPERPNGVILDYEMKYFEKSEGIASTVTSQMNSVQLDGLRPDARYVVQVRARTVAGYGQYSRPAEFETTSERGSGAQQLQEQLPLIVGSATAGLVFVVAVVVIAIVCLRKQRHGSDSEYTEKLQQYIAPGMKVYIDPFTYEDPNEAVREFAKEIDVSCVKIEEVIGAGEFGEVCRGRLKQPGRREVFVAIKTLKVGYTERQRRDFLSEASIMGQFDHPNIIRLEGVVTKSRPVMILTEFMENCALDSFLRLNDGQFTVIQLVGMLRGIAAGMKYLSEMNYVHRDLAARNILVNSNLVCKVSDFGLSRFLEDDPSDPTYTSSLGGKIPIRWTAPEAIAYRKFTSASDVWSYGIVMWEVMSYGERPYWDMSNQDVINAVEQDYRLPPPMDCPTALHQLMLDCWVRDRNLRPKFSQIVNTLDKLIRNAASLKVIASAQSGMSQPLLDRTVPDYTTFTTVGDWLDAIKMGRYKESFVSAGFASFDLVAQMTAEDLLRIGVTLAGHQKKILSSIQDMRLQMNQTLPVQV
As to the kind of experiment: EphB3 radiometric kinase activity assay (33P ATP filter binding). To be noted: for remaining activity at 0.01 µM: 10 nM compound, read-out: EphB3 % act 10 nM; for remaining activity at 0.03 µM: 30 nM compound, read-out: EphB3 % act 30 nM; for remaining activity at 0.1 µM: 100 nM compound, read-out: EphB3 % act 100 nM. The procedure: EphB3 radiometric kinase activity assay. To study the EphB3 kinase activity, a radioactive filter binding assay using 33P ATP was performed as described at the […] International Centre for Kinase profiling. […] The mix was harvested onto P81 filter plates and counts were read on a Topcount NXT.

In the next experiment the target is EphA4 (Homo sapiens, UniProt P54764). As to the kind of experiment: Eph receptor kinase activity assay (radiometric), EphA4. To be noted: for remaining activity at 0.01 µM: 10 nM compound, read-out: EphA4 % act 10 nM; for remaining activity at 0.03 µM: 30 nM compound, read-out: EphA4 % act 30 nM; for remaining activity at 0.1 µM: 100 nM compound, read-out: EphA4 % act 100 nM; for IC50: Table 2, Example 12.

The target in another experiment is T2, EphB4 (Homo sapiens, UniProt P54760).
T2 sequence (P54760 16-987): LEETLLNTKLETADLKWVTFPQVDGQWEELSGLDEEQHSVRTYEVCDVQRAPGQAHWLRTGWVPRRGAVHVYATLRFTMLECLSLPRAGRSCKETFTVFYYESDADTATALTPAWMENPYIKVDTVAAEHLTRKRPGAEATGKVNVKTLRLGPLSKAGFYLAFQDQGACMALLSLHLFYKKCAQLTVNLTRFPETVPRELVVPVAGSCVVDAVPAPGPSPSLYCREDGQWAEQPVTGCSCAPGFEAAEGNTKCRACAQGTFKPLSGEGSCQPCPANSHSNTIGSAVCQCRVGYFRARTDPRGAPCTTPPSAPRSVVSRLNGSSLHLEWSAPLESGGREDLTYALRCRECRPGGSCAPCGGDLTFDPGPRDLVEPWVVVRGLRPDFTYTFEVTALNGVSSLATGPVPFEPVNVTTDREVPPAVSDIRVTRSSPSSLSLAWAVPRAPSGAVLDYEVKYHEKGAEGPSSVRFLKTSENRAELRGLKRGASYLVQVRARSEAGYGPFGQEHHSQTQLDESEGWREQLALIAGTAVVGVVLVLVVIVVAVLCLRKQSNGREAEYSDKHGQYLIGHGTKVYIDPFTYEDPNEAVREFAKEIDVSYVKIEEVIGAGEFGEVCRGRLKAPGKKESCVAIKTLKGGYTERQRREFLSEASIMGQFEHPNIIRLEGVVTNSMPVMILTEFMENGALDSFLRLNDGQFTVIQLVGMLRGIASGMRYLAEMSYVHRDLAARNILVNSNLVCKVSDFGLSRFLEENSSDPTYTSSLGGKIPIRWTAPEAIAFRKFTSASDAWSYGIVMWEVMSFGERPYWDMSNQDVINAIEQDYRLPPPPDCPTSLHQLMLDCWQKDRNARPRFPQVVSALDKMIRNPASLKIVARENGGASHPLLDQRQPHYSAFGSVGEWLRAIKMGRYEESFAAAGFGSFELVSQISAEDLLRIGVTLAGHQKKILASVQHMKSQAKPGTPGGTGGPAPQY
Description: Eph receptor kinase activity assay (radiometric), EphB4. To be noted: for remaining activity at 0.01 µM: 10 nM compound, read-out: EphB4 % act 10 nM; for remaining activity at 0.03 µM: 30 nM compound, read-out: EphB4 % act 30 nM; for remaining activity at 0.1 µM: 100 nM compound, read-out: EphB4 % act 100 nM; for IC50: Table 2, Example 12.

A further experiment has as its target EphA2 (Homo sapiens, UniProt P29317). As to the kind of experiment: Eph receptor kinase activity assay (radiometric), EphA2. To be noted: for remaining activity at 0.01 µM: 10 nM compound, read-out: EphA2 % act 10 nM; for remaining activity at 0.03 µM: 30 nM compound, read-out: EphA2 % act 30 nM; for remaining activity at 0.1 µM: 100 nM compound, read-out: EphA2 % act 100 nM; for IC50: Table 2, Example 12.

[1] abbreviates: Table 2, Example 12, read-out: EphB3 (nM) IC50.
Setting [2] is: Example 14, read-out: IC50 (μM), EphB3 receptor kinase inhibitory activity.

Each structure is given as a SMILES string. Where two headings read alike, the source gives them in different places.

EphA2, sequence (P29317 24-976): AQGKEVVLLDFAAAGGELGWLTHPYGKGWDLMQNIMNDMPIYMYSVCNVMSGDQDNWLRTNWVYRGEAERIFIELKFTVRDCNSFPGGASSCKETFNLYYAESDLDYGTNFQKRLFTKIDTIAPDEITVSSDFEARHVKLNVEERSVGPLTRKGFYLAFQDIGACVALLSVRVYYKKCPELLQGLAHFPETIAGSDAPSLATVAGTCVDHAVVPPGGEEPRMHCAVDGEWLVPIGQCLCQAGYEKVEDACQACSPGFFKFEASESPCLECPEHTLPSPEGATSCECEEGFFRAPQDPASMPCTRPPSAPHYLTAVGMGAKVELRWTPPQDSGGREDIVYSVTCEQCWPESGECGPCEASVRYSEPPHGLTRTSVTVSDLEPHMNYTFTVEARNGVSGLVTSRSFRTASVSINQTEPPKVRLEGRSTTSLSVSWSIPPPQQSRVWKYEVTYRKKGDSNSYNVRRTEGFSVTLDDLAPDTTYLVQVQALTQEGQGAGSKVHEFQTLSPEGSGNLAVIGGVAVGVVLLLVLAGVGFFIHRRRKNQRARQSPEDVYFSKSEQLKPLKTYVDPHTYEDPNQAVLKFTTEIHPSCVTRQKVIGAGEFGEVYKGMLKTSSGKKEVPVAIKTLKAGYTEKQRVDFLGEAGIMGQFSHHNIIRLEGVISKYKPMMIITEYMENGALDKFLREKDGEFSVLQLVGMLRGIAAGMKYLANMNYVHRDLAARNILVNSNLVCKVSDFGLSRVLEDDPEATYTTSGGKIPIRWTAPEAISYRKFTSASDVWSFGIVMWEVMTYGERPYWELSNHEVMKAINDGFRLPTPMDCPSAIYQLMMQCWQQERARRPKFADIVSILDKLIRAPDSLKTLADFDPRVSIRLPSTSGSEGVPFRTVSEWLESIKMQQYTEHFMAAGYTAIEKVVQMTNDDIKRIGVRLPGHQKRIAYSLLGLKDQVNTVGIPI
EphA4, sequence (P54764 20-986): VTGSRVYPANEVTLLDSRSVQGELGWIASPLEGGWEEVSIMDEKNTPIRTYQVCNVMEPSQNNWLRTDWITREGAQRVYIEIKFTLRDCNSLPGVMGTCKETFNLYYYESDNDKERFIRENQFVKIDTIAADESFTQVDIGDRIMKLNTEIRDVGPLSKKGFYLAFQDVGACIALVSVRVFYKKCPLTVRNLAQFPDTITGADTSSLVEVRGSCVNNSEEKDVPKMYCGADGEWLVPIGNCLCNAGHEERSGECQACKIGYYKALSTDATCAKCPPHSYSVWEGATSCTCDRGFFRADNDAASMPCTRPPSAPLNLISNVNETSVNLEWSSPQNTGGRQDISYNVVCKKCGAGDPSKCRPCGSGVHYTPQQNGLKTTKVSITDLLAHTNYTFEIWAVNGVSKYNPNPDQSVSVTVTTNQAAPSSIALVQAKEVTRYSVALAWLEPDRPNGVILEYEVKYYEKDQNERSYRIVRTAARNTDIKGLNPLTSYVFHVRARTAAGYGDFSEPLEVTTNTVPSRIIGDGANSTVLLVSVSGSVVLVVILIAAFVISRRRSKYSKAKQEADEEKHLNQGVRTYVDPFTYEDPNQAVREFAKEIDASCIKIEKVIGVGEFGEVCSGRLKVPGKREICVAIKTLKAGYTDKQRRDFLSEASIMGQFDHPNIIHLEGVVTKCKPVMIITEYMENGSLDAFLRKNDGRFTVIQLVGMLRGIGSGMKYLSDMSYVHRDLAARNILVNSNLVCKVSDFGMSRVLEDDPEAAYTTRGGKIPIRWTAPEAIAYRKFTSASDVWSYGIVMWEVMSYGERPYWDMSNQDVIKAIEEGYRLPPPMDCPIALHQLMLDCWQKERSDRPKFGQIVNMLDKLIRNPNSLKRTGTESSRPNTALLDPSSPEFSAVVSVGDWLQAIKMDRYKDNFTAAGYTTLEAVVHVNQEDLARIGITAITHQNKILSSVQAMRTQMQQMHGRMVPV

For the molecule `COc1ccccc1-c1ccc2ncc(C(=O)Nc3ccccc3Cl)n2c1` [compound 101, N-(2-Chlorophenyl)-6-(2-methoxyphenyl)imidazo[1,2-a]pyridine-3-carboxamide], the remaining activity at 0.01 µM was determined as 80.9% at EphB3, 100% at EphA4, 98.8% on EphB4 and 67.7% at EphA2. The remaining activity at 0.03 µM is 62% on EphB3, 80.2% on EphA4, 101% on EphB4 and 65.4% at EphA2. The remaining activity at 0.1 µM at EphB3 came to 52.7%; on EphA4, 74.5%; at EphB4, 82%; on EphA2, 77%. For the same molecule, the IC50 was 90 nM on EphB3 (setting [1]), 297 nM against EphA4, 675 nM on EphB4 and 315 nM against EphA2.
For the molecule `COc1ccc(-c2ccc3ncc(C(=O)Nc4ccccc4Cl)n3c2)cc1` [compound 102, N-(2-Chlorophenyl)-6-(4-methoxyphenyl)imidazo[1,2-a]pyridine-3-carboxamide], the remaining activity at 0.01 µM on EphB3 amounted to 92.4%; at EphA4 it was 80.4%; at EphB4, 104%; at EphA2, 79.9%. Also, the remaining activity at 0.03 µM at EphB3 was found to be 92.7%; on EphA4 it was 74.1%; at EphB4, 103%; at EphA2 it was 69.4%. The remaining activity at 0.1 µM was determined as 88.6% at EphB3, 83.9% at EphA4, 98% on EphB4 and 59.6% on EphA2.
Turning to `COc1cccc(-c2ccc3ncc(C(=O)Nc4ccccc4Cl)n3c2)c1` [compound 103, N-(2-Chlorophenyl)-6-(3-methoxyphenyl)imidazo[1,2-a]pyridine-3-carboxamide], the remaining activity at 0.01 µM worked out at 103% on EphB3, 102% at EphA4, 94.7% at EphB4 and 76% on EphA2. In addition, the remaining activity at 0.03 µM on EphB3 was 86.2%; at EphA4, 85.1%; at EphB4, 106%; at EphA2, 75.3%. Also, the remaining activity at 0.1 µM on EphB3 came out at 41%; at EphA4, 85.6%; at EphB4 it was 132%; on EphA2, 70.5%.
As to `Cc1ccc(-c2ccc3ncc(C(=O)Nc4ccccc4Cl)n3c2)cc1` [compound 104, N-(2-Chlorophenyl)-6-(4-methylphenyl)imidazo[1,2-a]pyridine-3-carboxamide], the remaining activity at 0.01 µM is 110% at EphB3, 83.8% on EphA4, 93.1% at EphB4 and 78.1% on EphA2. Moreover, the remaining activity at 0.03 µM at EphB3 turned out to be 60.5%; at EphA4, 62.8%; on EphB4, 95.5%; on EphA2, 86%. In addition, the remaining activity at 0.1 µM on EphB3 stood at 55.9%; at EphA4, 57.8%; at EphB4, 98.4%; at EphA2 it was 55.9%.
For `Cc1cccc(-c2ccc3ncc(C(=O)Nc4ccccc4Cl)n3c2)c1` [compound 105, N-(2-Chlorophenyl)-6-(3-methylphenyl)imidazo[1,2-a]pyridine-3-carboxamide], the remaining activity at 0.01 µM on EphB3 was determined as 121%; on EphA4 it was 53.9%; on EphB4, 103%; on EphA2 it was 105%. In addition, the remaining activity at 0.03 µM worked out at 81.1% on EphB3, 40.9% on EphA4, 109% on EphB4 and 88.1% at EphA2. Moreover, the remaining activity at 0.1 µM stood at 63.7% on EphB3, 35.3% at EphA4, 93.8% at EphB4 and 65.3% at EphA2.
For the molecule `Cc1ccccc1-c1ccc2ncc(C(=O)Nc3ccccc3Cl)n2c1` [compound 106, N-(2-Chlorophenyl)-6-(2-methylphenyl)imidazo[1,2-a]pyridine-3-carboxamide], the remaining activity at 0.01 µM on EphB3 amounted to 132%; on EphA4, 83.8%; on EphB4 it was 98.9%; at EphA2 it was 110%. The remaining activity at 0.03 µM amounted to 93.8% on EphB3, 58.3% at EphA4, 106% at EphB4 and 78.9% at EphA2. Also, the remaining activity at 0.1 µM on EphB3 was 63.5%; at EphA4 it was 55.1%; on EphB4, 110%; on EphA2, 72.7%. Further, the IC50 at EphB3 (setting [2]) came out at 130 nM; at EphB3 (setting [1]), 182 nM; on EphA4, 110 nM; at EphB4, 675 nM; against EphA2 it was 245 nM.
For the molecule `O=C(Nc1ncccc1Cl)c1cnc2ccc(C3CCNCC3)cn12` [compound 120, N-(3-chloropyridin-2-yl)-6-(piperidin-4-yl)imidazo[1,2-a]pyridine-3-carboxamide], on EphB3 (setting [2]), the IC50 was 2900 nM.
On the same count and under the same terms, the result for `O=C(Nc1ccncc1Cl)c1cnc2ccc(C3CCNCC3)cn12` [compound 121, N-(3-chloropyridin-4-yl)-6-(piperidin-4-yl)imidazo[1,2-a]pyridine-3-carboxamide] reads 8100 nM; that for `CN1CCC(c2ccc3ncc(C(=O)Nc4ccccc4Cl)n3c2)CC1` [compound 122, N-(2-chlorophenyl)-6-(1-methylpiperidin-4-yl)imidazo[1,2-a]pyridine-3-carboxamide], 89 nM.
On the same count and under the same terms, the result for `O=C(Nc1cccc(F)c1Cl)c1cnc2ccc(C3CCNCC3)cn12` [compound 123, N-(2-chloro-3-fluorophenyl)-6-(piperidin-4-yl)imidazo[1,2-a]pyridine-3-carboxamide] reads 6000 nM.
As to `O=C(Nc1cccc2c1CCO2)c1cnc2ccc(C3CCNCC3)cn12` [compound 124, N-(2,3-dihydrobenzofuran-4-yl)-6-(piperidin-4-yl)imidazo[1,2-a]pyridine-3-carboxamide], the IC50 on EphB3 (setting [2]) was determined as 84000 nM.
